Assays:
[1] = Trained sensory panel rating of sweetness and bitterness intensity, Example 2 (measured values, S/B); type: in vivo; conditions: for Measured Bitterness / Measured Sweetness: citric acid buffer, scale 1-15; for Measured S/B: sweetness/bitterness ratio
Procedure: A trained sensory panel evaluated solutions of each rebaudioside D, rebaudioside M, rebaudioside G, rebaudioside O, rebaudioside N and rebaudioside E at 400 ppm and 600 ppm. Solutions were made in a citric acid buffer as the reference standard solutions described in Example 1. All solutions were heated to 55° C. for 12 minutes to ensure that all the glycoside material was completely dissolved. The solutions were allowed to cool to room temperature before serving to the panelists. Each solution was given a random 3-digit code and was served to the panelists in random order. Panelists dispensed 2 mL of each solution into their mouths from a pipette. The panelists were then asked to rate the “sweetness intensity” and “bitterness intensity” of the solutions and mark their responses on an un-anchored, 15 cm line scale. The length of the line corresponds to the scale values (1-15) on which the participants were trained. The panelists' responses were measured, compiled, and averaged for each sample (measured sweetness values and bitterness values). In between testing samples, the panelists cleansed their palates with water and apple slices. The panelists also waited 5 minutes between each sample. Rebaudioside D (purity of 94.4%) was obtained from ChromaDex™ Corp and rebaudioside M (purity 99.3%) was obtained from Cargill, Incorporated. Rebaudioside G (purity of 96.0%), Rebaudioside O (purity of 97.9%), Rebaudioside N (purity of 93.5%), Rebaudioside E (purity of 97.2%) were each obtained from ChromaaDex™ Corp. […] Also shown in Table 7 is the sweetness/bitterness ratios (S/B).

[2] = Trained sensory panel rating of sweetness intensity (SEV) and bitterness intensity, Example 1; type: in vivo; conditions: for Sweetness Avg. / Bitter Avg.: mean of five replicate tests; for Bitter Avg.: caffeine scale 1-15
Procedure: A sensory panel was trained to scale sweetness and bitterness. Reference tasting standards were prepared by dissolving respective standard material (sucrose for sweetness and caffeine for bitterness) into an aqueous citric acid buffer solution at pH 3.1 (distilled water containing 0.1% citric acid and 0.015% sodium citrate) according to the scale values shown in Table 1 below.
Solutions were made in the same citric acid buffer as the reference standard solutions. All solutions were heated to 55° C. for 12 minutes to ensure that all the glycoside material was completely dissolved. The solutions were allowed to cool to room temperature before serving to the panelists. Each solution was given a random 3-digit code and was served to the panelists in random order. Panelists dispensed 2 mL of each solution into their mouths from a pipette. The panelists were then asked to rate the “sweetness intensity” and “bitterness intensity” of the solutions and mark their responses on an un-anchored, 15 cm line scale. The length of the line corresponds to the scale values (1-15) on which the participants were trained. The panelists' responses were measured, compiled, and averaged for each sample. Each sample was tested by approximately 17 to 21 trained panelists.
In between testing samples, the panelists cleansed their palates with water and apple slices. The panelists also waited 5 minutes between each sample. Sweetness and bitter values of rebaudioside D (purity of 94.4%) and rebaudioside M (purity of […]) at varying concentrations were also obtained utilizing a sensory panel in a manner as described above. The sweetness is reported as sweetness and the sweetness is measured as a sucrose equivalent (SEV).
The sweetness and bitterness values of sweetener compositions containing Reb D or Reb M with other glycosides are shown in Tables 3-5. As described above, the samples were tasted by the panelist in random order. The tables show the concentration of the composition tested (ppm) as well as the ratio of one glycoside to another in the composition as a weight percentage.

[3] = 400 ppm in citric acid buffer pH 3.1
[4] = 600 ppm in citric acid buffer pH 3.1
[5] = total blend 400 ppm, citric acid buffer pH 3.1

C=C1C[C@@]23CC[C@H]4[C@@](C)(CCC[C@@]4(C)C(=O)O[C@@H]4O[C@H](CO)[C@@H](O)[C@H](O)[C@H]4O[C@@H]4O[C@H](CO)[C@@H](O)[C@H](O)[C@H]4O)[C@@H]2CC[C@]1(O[C@@H]1O[C@H](CO)[C@@H](O)[C@H](O)[C@H]1O[C@@H]1O[C@H](CO)[C@@H](O)[C@H](O)[C@H]1O)C3 [Reb E, Rebaudioside E]
Measured Bitterness ([1]; 400 ppm): 2.93
Measured Sweetness ([1]; 400 ppm): 4.53
Measured S/B ([1]; 400 ppm): 1.55
Measured Bitterness ([1]; 600 ppm): 2.98
Measured Sweetness ([1]; 600 ppm): 6.29
Measured S/B ([1]; 600 ppm): 2.11

C=C1C[C@@]23CC[C@H]4[C@@](C)(CCC[C@@]4(C)C(=O)O[C@@H]4O[C@H](CO)[C@@H](O)[C@H](O)[C@H]4O)[C@@H]2CC[C@]1(O[C@@H]1O[C@H](CO)[C@@H](O)[C@H](O[C@@H]2O[C@H](CO)[C@@H](O)[C@H](O)[C@H]2O)[C@H]1O)C3 [Reb G, Rebaudioside G]
Measured Bitterness ([1]; 400 ppm): 2.53
Measured Sweetness ([1]; 400 ppm): 2.17
Measured S/B ([1]; 400 ppm): 0.86
Measured Bitterness ([1]; 600 ppm): 2.30
Measured Sweetness ([1]; 600 ppm): 1.98
Measured S/B ([1]; 600 ppm): 0.84

C=C1C[C@@]23CC[C@H]4[C@@](C)(CCC[C@@]4(C)C(=O)O[C@@H]4O[C@H](CO)[C@@H](O)[C@H](O[C@@H]5O[C@H](CO)[C@@H](O)[C@H](O)[C@H]5O)[C@H]4O[C@@H]4O[C@@H](C)[C@H](O)[C@@H](O)[C@H]4O)[C@@H]2CC[C@]1(O[C@@H]1O[C@H](CO)[C@@H](O)[C@H](O[C@@H]2O[C@H](CO)[C@@H](O)[C@H](O)[C@H]2O)[C@H]1O[C@@H]1O[C@H](CO)[C@@H](O)[C@H](O)[C@H]1O)C3 [Reb N, Rebaudioside N]
Measured Bitterness ([1]; 400 ppm): 3.03
Measured Sweetness ([1]; 400 ppm): 7.44
Measured S/B ([1]; 400 ppm): 2.45
Measured Bitterness ([1]; 600 ppm): 3.25
Measured Sweetness ([1]; 600 ppm): 7.709
Measured S/B ([1]; 600 ppm): 2.37

C=C1C[C@@]23CC[C@H]4[C@@](C)(CCC[C@@]4(C)C(=O)O[C@@H]4O[C@H](CO)[C@@H](O)[C@H](O)[C@H]4O[C@@H]4O[C@H](CO)[C@@H](O)[C@H](O)[C@H]4O)[C@@H]2CC[C@]1(O[C@@H]1O[C@H](CO)[C@@H](O)[C@H](O[C@@H]2O[C@H](CO)[C@@H](O)[C@H](O)[C@H]2O)[C@H]1O[C@@H]1O[C@H](CO)[C@@H](O)[C@H](O)[C@H]1O)C3 [Reb D, Rebaudioside D]
Sweetness Avg. [2, 3]: 7.1 SEV
Bitter Avg. [2, 3]: 3.6
Sweetness Avg. [2, 4]: 8.3 SEV
Bitter Avg. [2, 4]: 4.2
Measured Bitterness ([1]; 400 ppm): 3.51
Measured Sweetness ([1]; 400 ppm): 7.08
Measured S/B ([1]; 400 ppm): 2.05
Measured Bitterness ([1]; 600 ppm): 3.80
Measured Sweetness ([1]; 600 ppm): 8.31
Measured S/B ([1]; 600 ppm): 2.23

C=C1C[C@@]23CC[C@H]4[C@@](C)(CCC[C@@]4(C)C(=O)O[C@@H]4O[C@H](CO)[C@@H](O)[C@H](O[C@@H]5O[C@H](CO)[C@@H](O)[C@H](O)[C@H]5O)[C@H]4O[C@@H]4O[C@H](CO)[C@@H](O)[C@H](O)[C@H]4O)[C@@H]2CC[C@]1(O[C@@H]1O[C@H](CO)[C@@H](O)[C@H](O[C@@H]2O[C@H](CO)[C@@H](O)[C@H](O)[C@H]2O)[C@H]1O[C@@H]1O[C@H](CO)[C@@H](O)[C@H](O)[C@H]1O)C3 [Reb M, Rebaudioside M]
Sweetness Avg. [2, 3]: 7.7 SEV
Bitter Avg. [2, 3]: 3.8
Sweetness Avg. [2, 4]: 8.4 SEV
Bitter Avg. [2, 4]: 4.2
Measured Bitterness ([1]; 400 ppm): 3.65
Measured Sweetness ([1]; 400 ppm): 7.76
Measured S/B ([1]; 400 ppm): 2.14
Measured Bitterness ([1]; 600 ppm): 3.76
Measured Sweetness ([1]; 600 ppm): 8.38
Measured S/B ([1]; 600 ppm): 2.26

C=C1C[C@@]23CC[C@H]4[C@@](C)(CCC[C@@]4(C)C(=O)O[C@@H]4O[C@H](CO)[C@@H](O)[C@H](O[C@@H]5O[C@H](CO)[C@@H](O)[C@H](O)[C@H]5O)[C@H]4O[C@@H]4O[C@@H](C)[C@H](O)[C@@H](O[C@@H]5O[C@H](CO)[C@@H](O)[C@H](O)[C@H]5O)[C@H]4O)[C@@H]2CC[C@]1(O[C@@H]1O[C@H](CO)[C@@H](O)[C@H](O[C@@H]2O[C@H](CO)[C@@H](O)[C@H](O)[C@H]2O)[C@H]1O[C@@H]1O[C@H](CO)[C@@H](O)[C@H](O)[C@H]1O)C3 [Reb O, Rebaudioside O]
Bitter [2, 5]: 3.1
Sweetness [2, 5]: 7.2 SEV
Measured Bitterness ([1]; 400 ppm): 2.98
Measured Sweetness ([1]; 400 ppm): 7.47
Measured S/B ([1]; 400 ppm): 2.51
Measured Bitterness ([1]; 600 ppm): 3.23
Measured Sweetness ([1]; 600 ppm): 7.669
Measured S/B ([1]; 600 ppm): 2.37

Source: patent US12016357B2, “Glycoside compositions” (CARGILL, INCORPORATED, priority 2015, dated 2024)
